Assay results taken from patent publication US11685714B2, “Prodrugs of cytotoxic active agents having enzymatically cleavable groups” (BAYER PHARMA AKTIENGESELLSCHAFT, priority 2016, dated 2023).
Counter-ions that a name gives are not always drawn.

Columns and labels:
Type in all cases: cell-based
[1] = tested on: NCI-H292: human mucoepidermoid lung carcinoma cells; test: MTT assay on NCI-H292; details: 96 h incubation
Procedure: (§1) The analysis of the cytotoxic effects of the ADCs was carried out with various cell lines:
(§2) The cells were cultivated by the standard method as stated by the American Tissue Culture Collection (ATCC) or the Leibniz-lnstitut DSMZ-Deutsche Sammlung von Mikroorganismen und Zellkulturen GmbH (DSMZ) for the cell lines in question.
(§3) The cells were then incubated in an incubator at 37° C. and 5% carbon dioxide. […] To this end, the MTT reagent was incubated with the cells for 4 h, followed by lysis of the cells overnight by addition of the detergent. […] The measured data were used to calculate the ICo50 of the growth inhibition using the DRC (dose response curve). The proliferation of cells which were not treated with test substance but were otherwise identically treated was defined as the 100% figure.

[2] = tested on: SK-HEP-1: human liver cell cancer line; test: MTT assay on SK-HEP-1; details: SK-HEP1, 96 h, growth inhibition, 96 h incubation
Procedure: as §1, §2, §3

[3] = tested on: KPL4: human breast cancer cell line; test: MTT assay on KPL4; details: 96 h incubation
Procedure: as §1, §2, §3

[4] = NCI-H292, 96 h, growth inhibition

IC50 ([3]; KPL4, growth inhibition) [nM] | IC50 ([1]; NCI-H292, growth inhibition) [nM] | SMILES | IC50 [1, 4] [nM] | IC50 [2] [nM] | IC50 ([3]; KPL4, 96 h, growth inhibition) [nM]
 |  | CC(C)(C)[C@H](c1cc(-c2cc(F)ccc2F)cn1Cc1ccccc1)N(CC[C@H](N)C(=O)NCCC(=O)NCCCC[C@H](N)C(=O)O)C(=O)CO [Example M19, N^6—(N-{(2S)-2-Amino-4-[{(1R)-1-[1-benzyl-4-(2,5-difluorophenyl)-1H-pyrrol-2-yl]-2,2-dimethylpropyl}(glycoloyl)amino]butanoyl}-beta-alanyl)-L-lysine/trifluoroacetic acid (1:1)] | 121 |  | 
 |  | CC(C)(C)[C@H](c1cc(-c2cc(F)ccc2F)cn1Cc1ccccc1)N(CC[C@H](N)C(=O)NCCOCCN1C(=O)CC(SC[C@H](N)C(=O)O)C1=O)C(=O)CO (stereo partly drawn) [Example M4, S-(1-{2-[2-({(2S)-2-Amino-4-[{(1R)-1-[1-benzyl-4-(2,5-difluorophenyl)-1H-pyrrol-2-yl]-2,2-dimethylpropyl}(glycoloyl)amino]butanoyl}amino)ethoxy]ethyl}-2,5-dioxopyrrolidin-3-yl)-L-cysteine/trifluoroacetic acid (1:1)] | 44.3 | 34.5 | 176
 |  | CC(C)(C)[C@H](c1cc(-c2cc(F)ccc2F)cn1Cc1ccccc1)N(CC[C@H](N)C(=O)NCCNC(=O)CNC(=O)CC(SC[C@H](N)C(=O)O)C(=O)O)C(=O)CO (single isomer, unassigned) [Example M13] | 152 | 68.1 | 169
 |  | CC(C)(C)[C@H](c1cc(-c2cc(F)ccc2F)cn1Cc1ccccc1)N(CCCN)C(=O)CSC[C@H](N)C(=O)O [Example M11, S-{2-[(3-Aminopropyl){(1R)-1-[1-benzyl-4-(2,5-difluorophenyl)-1H-pyrrol-2-yl]-2,2-dimethylpropyl}amino]-2-oxoethyl}-L-cysteine/trifluoroacetic acid (1:2)] | 0.0432 | 0.189 | 
 |  | CC(C)(C)[C@H](c1cc(-c2cc(F)ccc2F)cn1Cc1ccccc1)N(CC[C@H](N)C(=O)NCCNC(=O)CNC(=O)CC(SC[C@H](N)C(=O)O)C(=O)O)C(=O)CO (single isomer, unassigned) [Example M14] | 174 | 94.3 | 177
 |  | CC(C)(C)[C@H](c1cc(-c2cc(F)ccc2F)cn1Cc1ccccc1)N(CC[C@H](N)C(=O)NCCNC(=O)CNC(=O)CC1SC[C@@H](C(=O)O)NC1=O)C(=O)CO (stereo partly drawn) [Example M08, (3R)-6-{(11 S,15R)-11-Amino-15-[1-benzyl-4-(2,5-difluorophenyl)-1H-pyrrol-2-yl]-14-glycoloyl-16,16-dimethyl-2,5,10-trioxo-3,6,9,14-tetraazaheptadec-1-yl}-5-oxothiomorpholine-3-carboxylic acid/trifluoroacetic acid (1:1)] |  |  | 487
 |  | CC(C)(C)[C@H](c1cc(-c2cc(F)ccc2F)cn1Cc1ccccc1)N(CC[C@H](N)C(=O)NCCNC(=O)CSC[C@H](N)C(=O)O)C(=O)CO [Example M7, S-(2-{[2-({(2S)-2-Amino-4-[{(1R)-1-[1-benzyl-4-(2,5-difluorophenyl)-1H-pyrrol-2-yl]-2,2-dimethylpropyl}(glycoloyl)amino]butanoyl}amino)ethyl]amino}-2-oxoethyl)-L-cysteine/trifluoroacetic acid (1:1)] | 21.2 |  | 92.3
 |  | CC(C)(C)[C@H](c1cc(-c2cc(F)ccc2F)cn1Cc1ccccc1)N(CC[C@H](N)C(=O)NCCNC(=O)CNC(=O)C(CC(=O)O)SC[C@H](N)C(=O)O)C(=O)CO (stereo partly drawn) [Example M27, 4-[(2-{[2-({(2S)-2-Amino-4-[{(1R)-1-[1-benzyl-4-(2,5-difluorophenyl)-1H-pyrrol-2-yl]-2,2-dimethylpropyl}(glycoloyl)amino]butanoyl}amino)ethyl]amino}-2-oxoethyl)amino]-3-{[(2R)-2-amino-2-carboxyethyl]sulphanyl}-4-oxobutanoic acid/trifluoroacetic acid (1:1)] | 276 | 89 | 
 |  | CC(C)(C)[C@H](c1cc(-c2cc(F)ccc2F)cn1Cc1ccccc1)N(CC[C@H](N)C(=O)NCCC(=O)N[C@@H](CCC(=O)O)C(=O)O)C(=O)CO [Example M23, N-{(2S)-2-Amino-4-[{(1R)-1-[1-benzyl-4-(2,5-difluorophenyl)-1H-pyrrol-2-yl]-2,2-dimethylpropyl}(glycoloyl)amino]butanoyl}-beta-alanyl-L-glutamic acid/trifluoroacetic acid (1:1)] | 500 | 500 | 500
 |  | CC(C)(C)[C@H](c1cc(-c2cc(F)ccc2F)cn1Cc1ccccc1)N(CC[C@H](N)C(=O)NCCNC(=O)CN1C(=O)CC(SC[C@H](N)C(=O)O)C1=O)C(=O)CO (stereo partly drawn) [Example M1, S-[1-(2-{[2-({(2S)-2-Amino-4-[{(1R)-1-[1-benzyl-4-(2,5-difluorophenyl)-1H-pyrrol-2-yl]-2,2-dimethylpropyl}(glycoloyl)amino]butanoyl}amino)ethyl]amino}-2-oxoethyl)-2,5-dioxopyrrolidin-3-yl]-L-cysteine/trifluoroacetic acid (1:1)] | 500 |  | 500
 |  | CC(C)(C)[C@H](c1cc(-c2cc(F)ccc2F)cn1Cc1ccccc1)N(CC[C@H](N)C(=O)NCCNC(=O)CC[C@H](N)C(=O)O)C(=O)CO [Example M18, N-[2-({(2S)-2-Amino-4-[{(1R)-1-[1-benzyl-4-(2,5-difluorophenyl)-1H-pyrrol-2-yl]-2,2-dimethylpropyl}(glycoloyl)amino]butanoyl}amino)ethyl]-L-glutamine/trifluoroacetic acid (1:1)] | 35.5 |  | 
 |  | CC(C)(C)[C@H](c1cc(-c2cc(F)ccc2F)cn1Cc1ccccc1)N(CCCN)C(=O)CSC[C@H](NC(=O)CCC(=O)O)C(=O)O [Example M12, 4-{[(1R)-2-({2-[(3-Aminopropyl){(1R)-1-[1-benzyl-4-(2,5-difluorophenyl)-1H-pyrrol-2-yl]-2,2-dimethylpropyl}amino]-2-oxoethyl}sulphanyl)-1-carboxyethyl]amino}-4-oxobutanoic acid/trifluoroacetic acid (1:1)] | 33 | 21.1 | 
 |  | CC(C)(C)[C@H](c1cc(-c2cc(F)ccc2F)cn1Cc1ccccc1)N(CCCN)C(=O)CSC[C@H](NC(=O)CCOCCOCCOCCOCCNC(=O)CNC(=O)CC(SC[C@H](N)C(=O)O)C(=O)O)C(=O)O (stereo partly drawn) [Example M20, (1R,4R,27R,33R)-1-Amino-32-(3-aminopropyl)-33-[1-benzyl-4-(2,5-difluorophenyl)-1H-pyrrol-2-yl]-34,34-dimethyl-6,9,25,31-tetraoxo-13,16,19,22-tetraoxa-3,29-dithia-7,10,26,32-tetraazapentatriacontane-1,4,27-tricarboxylic acid/trifluoroacetic acid (1:2)] | 149 | 181 | 213
 |  | CC(C)(C)[C@H](c1cc(-c2cc(F)ccc2F)cn1Cc1ccccc1)N(CC[C@H](N)C(=O)NCCNC(=O)CNC(=O)C(CC(=O)O)SC[C@H](N)C(=O)O)C(=O)CO (single isomer, unassigned) [Example M15] | 133 | 49.8 | 169
 |  | CC(C)(C)[C@H](c1cc(-c2cc(F)ccc2F)cn1Cc1ccccc1)N(CC[C@H](N)C(=O)O)C(=O)CO [Example M17, (2S)-2-Amino-4-[{(1R)-1-[1-benzyl-4-(2,5-difluorophenyl)-1H-pyrrol-2-yl]-2,2-dimethylpropyl}(glycoloyl)amino]butanoic acid hydrochloride (1:1)] | 7.35 |  | 
 |  | CC(C)(C)[C@H](c1cc(-c2cc(F)ccc2F)cn1Cc1ccccc1)N(CC[C@H](N)C(=O)NCCC(=O)N[C@H](CCC(=O)O)C(=O)O)C(=O)CO [Example M24, N-{(2S)-2-Amino-4-[{(1R)-1-[1-benzyl-4-(2,5-difluorophenyl)-1H-pyrrol-2-yl]-2,2-dimethylpropyl}(glycoloyl)amino]butanoyl}-beta-alanyl-D-glutamic acid/trifluoroacetic acid (1:1)] | 167 | 57.3 | 500
0.514 | 0.27 | CC(C)(C)[C@H](c1cc(-c2cc(F)ccc2F)cn1Cc1ccccc1)N(CCCN)C(=O)CO [Example M9, N-(3-Aminopropyl)-N-{(1R)-1-[1-benzyl-4-(2,5-difluorophenyl)-1H-pyrrol-2-yl]-2,2-dimethylpropyl}-2-hydroxyacetamide] |  |  | 
